Assay results published in PMC4994278, “Characterization of a glucose-tolerant β-glucosidase from Anoxybacillus sp. DT3-1” (Biotechnology for Biofuels, 2016).

Biological target: T1, DT-Bgl (Anoxybacillus gonensis, UniProt M5QUM2)
T1 construct: full-length ORF, 453 residues (no signal peptide), pET-28a BamHI/XhoI, Ni-NTA purified (His tag, removal not mentioned), E. coli BL21(DE3), 53 kDa on SDS-PAGE
Experiment: HPLC of cellobiose hydrolysis with added glucose
Assay type: biochemical
Conditions: 400000 µM; substrate cellobiose (1% w/v in substrate assay), 100 mM glycine-NaOH pH 8.5, 60 °C; product inhibition

- % relative activity in 0.4 M glucose: 54%
SMILES: OC[C@H]1OC(O)[C@H](O)[C@@H](O)[C@@H]1O (stereo partly shown) [glucose]
